According to ChEMBL document CHEMBL1147817, “Two novel furan derivatives from Phellinus linteus with anti-complement activity” (Bioorg Med Chem Lett, 2006):

Experiment: Inhibition of classical pathway of the complement system
Assay type: functional, Homo sapiens

| IC50 | Compound |
| --- | --- |
| 180 µM | O=C(/C=C/c1ccc(O)c(O)c1)O[C@H](Cc1ccc(O)c(O)c1)C(=O)O [ROSMARINIC ACID] |
| 33.7 µM | CO[C@H]1O[C@H](C(O)CO)/C(=C/c2ccc(CO)o2)C1=O (stereo partly drawn) [PHELLINUSFURAN B] |
| 33.6 µM | CO[C@H]1O[C@@H](C(O)CO)/C(=C/c2ccc(CO)o2)C1=O (stereo partly drawn) [PHELLINUSFURAN A] |
